The test system of data set [1] is Sprague-Dawley (SD) rats. In words: Toxicity of bolus and continuous intravenous infusion in rats. It is filed as in vivo. The following applies: IV bolus 100 mg/kg followed by IV infusion 25 mg/kg/hr for 24 hr. The procedure:
(§1) Toxicological responses to bolus and continuous intravenous infusion of M3mP6 HLPN were performed using jugular vein catheterized (JVC) Sprague-Dawley (SD) rats (6-8 weeks old and […]), which were quarantined for at least 3 day after arrival. Four SD rats (n=2 per sex) was given an IV bolus dose of M3mP6 (100 mg/kg, dose volume 10 mL/kg) followed by IV infusion dose of M3mP6 for 24 hr (25 mg/kg/hr for a total dose of 600 mg/kg/day). […] A pilot 7-day continuous infusion study in rats was performed similarly with lower drug concentrations. The parameters observed include mortality, clinical signs, body weights, hematology, clinical chemistry and organ weights. For pharmacokinetic studies, plasma samples for drug analysis were obtained from blood samples collected in satellite 6 males and 6 females (3 rat/sex per time-point) in the dose Groups 3 and 4 (Phase 2) at the following time-point on Day 1 after the bolus dose and infusion were started: 5, 10 and 30 minutes, and 1, 2, 6 and 24 hours. Additional blood samples were collected prior to the end of 5-day infusion, immediately after stopping the infusion, and at 30 minutes, and 1, 4, 6, 24 and 48 hours after the end of the infusion.

Data set [2] in a line: Pharmacokinetics in mice. It counts as in vivo, mouse. The following applies: intravenous injection of 5 mg/kg (5 μmol/kg). The procedure:
For pharmacokinetic studies, CD-1 mice were intravenously injected with 5 mg/kg (5 μmol/kg) M3mP6 (potential therapeutic dose). At the following time points: 0 (pre-dose) min, 5 min, 10 min, 30 min, 1, 2, 4, 6, and 24 hours, 3 drug-treated mice were sacrificed, and their blood drawn via vena cava into K2EDTA tubes. Whole blood and plasma were analyzed for M3mP6 concentrations using Agilent 1290 Infinity LC and 6430 triple quadrupole mass spectrometer and MassHunter software.

Data set [3] can be described thus: Acute maximal tolerated dose (MTD) in mice. The following applies: mouse, in vivo, 60 mg/kg; CD-1 mice, IV tail vein, single injection, observed 8 days; read-out: maximal tolerated dose (MTD) = maximal feasible dose.
Experimental: Four more animals were then injected with the same dose. The animals were observed 2 times per day for 8 days for clinical signs of toxicity.
Data set [4] is described as follows: Pharmacokinetics in rats (5-day infusion). The following applies: Sprague-Dawley, in vivo. The arrangement: species or system rat. The procedure: as §1
For data set [5], the system named is C57BL/6 mice. The experiment in a line: Tail bleeding time. The following applies: cangrelor 30 μg/kg; for tail bleeding, drugs injected after initiation of thrombosis: M3mP6 10 μmol/kg; for tail bleeding time vs normal control: M3mP6 HLPN 10 μmol/kg, aspirin 4.3 mg/kg, clopidogrel 4 mg/kg, ticagrelor 3 mg/kg, MB2mP6.
Experimental: M3mP6 was administered via retro-orbital injection 15 minutes prior to procedure.
Tail bleeding time was performed as previously described (21, 39). Eight- to 10-week-old C57BL/6 mice were anesthetized with isoflurane. After cutting 0.5-cm-long segment of the distal tip of the tail, their tails were immersed in 0.15 M NaCl immediately at 37° C. Tail bleeding time was defined as the time between cutting tail and stable cessation of bleeding (no rebleeding within 60s). […] If bleeding persisted at 15 minute time point, bleeding was stopped by application of pressure. Data were analyzed using Mann-Whitney test to compare medians between groups.
Tail bleeding time was performed as previously described (16, 29). Eight- to 10-week-old C57BL/6 mice weighing 20-25 g were anesthetized with isoflurane. After cutting a 0.5-cm-long segment off the distal tip of the tail, their tails were immersed in 0.15 M NaCl immediately at 37° C. Tail bleeding time was defined as the time between cutting the tail and stable cessation of bleeding (no re-bleeding within 60s). […] If bleeding persisted at 15 minutes, bleeding was stopped by application of pressure. Data were analyzed using the Mann-Whitney test to compare medians between groups.
The test system of data set [6] is human platelets. In words: Human platelet aggregation (lumiaggregometer). It counts as cell-based. The following applies: washed human platelets pretreated with peptide. The procedure:
(§2) For human subjects, Institutional Review Board approval was obtained from the University of Illinois at Chicago, and informed consent from volunteers was obtained in accordance with the Declaration of Helsinki. Platelets were prepared as previously described (33). Platelet aggregation and adenosine triphosphate (ATP) secretion were measured simultaneously in a lumiaggregometer (Chronolog) at 37° C. with stirring (1000 rpm), as previously described (34).
(§3) To prepare platelet-rich plasma (PRP), whole blood was anticoagulated with 3.8% trisodium citrate. To prepare human platelets, one-seventh volume of ACD was used as anticoagulant. Platelets were washed twice and resuspended in modified Tyrode's buffer as previously described (27). Platelet aggregation and adenosine triphosphate (ATP) secretion were measured simultaneously in a lumiaggregometer (Chronolog) at 37° C. with stirring (1000 rpm) as previously described (28).

Data set [7] deals with human platelets. In words: Human platelet granule (ATP) secretion (lumiaggregometer). It counts as cell-based. The following applies: for integrin-dependent second wave of ATP/granule secretion induced by U46619 / integrin-independent first wave of ATP/granule secretion induced by U46619: human platelets (Integrilin: mouse and human platelets); for ATP secretion induced by thrombin: washed human platelets pretreated with peptide. The procedure:
as §2, §3

The conditions of data set [8]: reference (21); cited from earlier work.
Data set [9] is described as follows: Peptide loading, peptide concentration and dissolution of the nanoparticle/micelle formulation. The following applies: HLPN, or lipid micellar suspension for mP6. It counts as physicochemical. An excerpt: The peptide myr-FEEERL(SEQ ID NO: 25) was modified from the original […] cytoplasmic domain sequence to make it more suitable to form peptide-based nanoparticle, and was formulated to form lipid-stabilized high-loading peptide nanoparticles together with PEG2000-DSPE (Avanti Polar Lipids Inc. Alabaster, AL), L-α-phosphatidylcholine (egg PC, Type XI-E, Sigma-Aldrich, St. Louis, MO) with a peptide to PEG-DSPE to PC molar ratio of 36.8:51.7:11.5 or 50:40:10 (further improved formulation with identical in vivo effect) using thin-film rehydration (21, 31). The size distribution of nanoparticles were determined using dynamic light scattering (DLS) (Malvern, Zetasizer Nano ZS90, Worcestershire, U.K.) as previously described (32). This method uses light scattering to monitor the Brownian motion of the particles. Particle size is presented as volume weighted diameter distribution.

For data set [10], the system named is C57BL/6 mice. In words: FeCl3-induced mouse carotid artery thrombosis model. The following applies: for formation of stable occlusive thrombus / occlusion time vs normal control: 7.5% FeCl3, M3mP6 HLPN 5 or 10 μmol/kg retro-orbital 15 min before, aspirin 4.3 mg/kg oral 2 h, clopidogrel 4 mg/kg oral 2 h, MB2mP6 15 min before; for anti-thrombotic effect compared with M3mP6 HLPN (10 μmol/kg), pre-injury dosing: clopidogrel 4 mg/kg, ticagrelor 3 mg/kg, aspirin 4.3 mg/kg oral, cangrelor 30 μg/kg retro-orbital, MB2mP6. It counts as in vivo. The procedure: The right carotid artery was isolated (34, 37). A MA-0.5SB nanoprobe (Transonic Systems, Ithaca, NY) was hooked to the carotid artery to monitor blood flow with a TS420 flowmeter (Transonic Systems) as previously described (38). After stabilization, carotid arterial thrombosis was induced with 7.5% ferric chloride (FeCl3) (Sigma Aldrich, St. Louis, MO), a filter paper disc (2 mm diameter) soaked with 1.2 μL of 7.5% FeCl3 was placed on top of the artery for 3 minutes, and then removed. M3mP6 HLPN, HLPN of scrambled control peptide, HLPN of a second control peptide carrying AAA mutation or physiological saline solution were injected 15 minutes before procedure retro-orbitally. […] To study the effect of post-injury drug injection on thrombosis development, the filter paper disc soaked with 1.2 μl 3.75% FeCl3 were placed on artery for 2 minutes, and drugs were injected retro-orbitally 3 minutes after removing the filter paper. Blood flow was monitored continuously until 5 minutes after occlusion or for 30 minutes if no occlusion occurred. Time to occlusion was defined as the time between the removal of the filter paper and stable occlusion (no blood flow for 2 minutes).
Eight- to 10-week-old C57BL/6 mice (20-25 g body weight) were anesthetized by isoflurane inhalation. The right carotid artery was isolated. A MA-0.5SB nanoprobe (Transonic Systems, Ithaca, NY) was hooked to the carotid artery to monitor blood flow with a TS420 flowmeter (Transonic Systems) as previously described (29). After stabilization, a filter paper disc (2 mm diameter) soaked with 1.2 μL of 7.5% FeCl3 (Sigma Aldrich, St. Louis, MO) was placed on top of the carotid artery for 3 minutes to induce thrombosis and then removed. MB2mP6 or scrambled control peptide were injected 15 minutes before the procedure retro-orbitally. Blood flow was monitored continuously until 5 minutes after occlusion or for 15 minutes if no occlusion occurred. Time to occlusion was defined as the time between the removal of the filter paper and stable occlusion (no blood flow for 5 minutes).

Data set [11] has as its system C57BL/6 mice. In words: Laser-induced mouse cremaster arteriolar thrombosis and intravital microscopy. The following applies: M3mP6 HLPN 10 μmol/kg, cangrelor 30 μg/kg. It counts as in vivo. The procedure:
Laser-induced thrombosis and intravital microscopy are performed as previously described using male C57BL/6 mice (6-8 weeks old) anesthetized by intraperitoneal injection of ketamine and xylazine (36). Platelet thrombi were indicated by infusion of DyLight 649-labeled anti-mouse […], Germany). Fibrin deposition was tracked by Alexa Fluor (AF) 488-labeled monoclonal anti-fibrin antibody (clone 59D8) as previously described (25). Suspensions of M3mP6 HLPN (10 μmol/kg) or a control peptide (Myr-ERAFEE (SEQ ID NO: 47)) HLPN in 0.15 M NaCl or cangrelor were injected 15 min or immediately prior to induction of injury. Fluorescence and bright-field images were recorded by an Olympus BX61W microscope with a 603/1.0 NA water immersion objective and a high-speed camera (5 frame/second) through an intensifier at 27-30 injury sites in 7 mice per group. The movies shown are compressed to 100 frame/second.

Data set [12] deals with C57BL/6 mice. In words: Arterial perforation bleeding analysis (carotid artery perforation model of surgical bleeding). It is filed as in vivo, mouse. The following applies: M3mP6 HLPN 10 μmol/kg; cangrelor loading dose 30 μg/kg. The procedure: The right carotid artery was isolated as previously described (34, 37) and punctured with a 27½G needle in the middle of carotid artery. The perforating wound was immediately covered with a 4×4 mm hemostatic pad (CERTI-GAUZE™, Kansas City, MO), which serve to absorb extravascular blood and also help stop bleeding similarly to that during vascular procedures. The pad was removed after 15 minutes regardless whether bleeding continued or not. The volume of blood absorbed on the pad during the 15-minute period was quantified by estimating the amount of hemoglobin. To do so, adsorbed blood on the pad was dissolved into 30 mL double distilled water. To 1 mL of dissolved blood, 1 mL of the 2× Drabkin's Solution was added. After fully mixing and incubating for 20 minutes at room temperature, the absorbance of the samples was analyzed at 540 nm wave length with a spectrophotometer. Known volumes of blood were similarly analyzed to establish a standard curve for the calculation of blood volume on the pad. Data were analyzed by Mann-Whitney test for statistical significance.

Where a SMILES comes first, the peptide text is derived from it. Bridges are numbered along the chain shown (N, C = ends). Where no end group is shown, it is not given here. [ ]: non-standard residue; d: D form. The star is where a group is joined. hArg = N=C(N)NCCCC[C@H](N)C(=O)O; Myristoyl = CCCCCCCCCCCCCC(=O)*; Mpa = O=C(O)CCS

One may read the MTD as the highest dose tested that stayed within the study's limit of toxicity. For `CCCCCCCCCCCCCC(=O)N[C@@H](Cc1ccccc1)C(=O)N[C@@H](CCC(=O)O)C(=O)N[C@@H](CCC(=O)O)C(=O)N[C@@H](CCC(=O)O)C(=O)N[C@@H](CCCNC(=N)N)C(=O)N[C@@H](CC(C)C)C(=O)O` [M3mP6, Myr-FEEERL] (Myristoyl-FEEERL-OH; C-terminus assumed), in data set [1], the “toxicity during 3-4 days post dose (single dose MTD)” value is listed as “no toxicity was observed”. For the same compound, the half-life in data set [2] (CD-1, mouse, in vivo, read-out: t1/2−λz (converted)) was 2.46 h; in [4] (female, rat, iv) it was 3.7 h; in data set [4] (male, rat 5-day infusion study, read-out: t1/2−λz (half-life after cessation of infusion), male (converted)) it was 3.1 h. Further, in data set [2], the “maximum level in whole blood” value worked out at 33.36 ng/mL. Further, the MTD at 8 days in data set [3] was 60 mg/kg. In addition, the “tail bleeding, drugs injected after initiation of thrombosis” value in data set [5] is reported as “but not M3mP6 caused significant bleeding”.
Turning to myr-FEEERA (Myristoyl-FEEERA) [mP6], the thrombin-induced platelet aggregation result in data set [6] is “potently inhibited”. Besides, in data set [7], the “integrin-dependent second wave of ATP/granule secretion induced by U46619” value is reported as “diminished”, the “integrin-independent first wave of ATP/granule secretion induced by U46619” value is given as “diminished” and the “ATP secretion induced by thrombin” value is reported as “significantly inhibited”. Besides, in data set [8], the “maximal concentration of peptide in lipid micellar formulation” value is below 1 mM and the “maximal peptide content of lipid micellar formulation (mol/mol)” value is given as at most 4%. Besides, in data set [9], the “peptide concentration in injectable/micellar suspension” value is recorded as 1 mM and the “peptide loading, of total molar content (mol/mol)” value is listed as below 4%.
Consider myr-EEERA (Myristoyl-EEERA) [mP5], for which the thrombin-induced platelet aggregation entry in [6] was “partially inhibited”. In addition, in data set [7], the “integrin-dependent second wave of ATP/granule secretion induced by U46619” value is listed as “reduced”, the “integrin-independent first wave of ATP/granule secretion induced by U46619” value was “significantly enhanced” and the “ATP secretion induced by thrombin” value was “enhanced”.
For the compound `CCCSc1nc(N[C@@H]2C[C@H]2c2ccc(F)c(F)c2)c2nnn([C@@H]3C[C@H](OCCO)[C@@H](O)[C@H]3O)c2n1` [ticagrelor], the “tail bleeding time vs normal control” value in data set [5] is listed as “dramatically prolonged”.
Regarding `COC(=O)[C@H](c1ccccc1Cl)N1CCc2sccc2C1` [clopidogrel], in [10], the “formation of stable occlusive thrombus / occlusion time vs normal control” value is “moderate but significant delay” and the “anti-thrombotic effect compared with M3mP6 HLPN (10 μmol/kg), pre-injury dosing” value is given as “significantly less effective”.
`CC(=O)Oc1ccccc1C(=O)O` [aspirin]: the “formation of stable occlusive thrombus / occlusion time vs normal control” value in data set [10] is on record as “not significantly different”. Moreover, the “occlusive thrombus formation, high dose aspirin experiment” value in data set [10] (aspirin 36 mg/kg i.p. 1 hour prior, M3mP6 HLPN 5 μmol/kg, combination) is on record as “no significant effect”.
Turning to `N=C(N)NCCCC[C@@H]1NC(=O)CCSSC[C@@H](C(N)=O)NC(=O)[C@@H]2CCCN2C(=O)[C@H](Cc2c[nH]c3ccccc23)NC(=O)[C@H](CC(=O)O)NC(=O)CNC1=O` [Integrilin, reference compound] ([Mpa][hArg]GDWPC-NH2; disulfide 1-7), in data set [7], the “integrin-dependent second wave of ATP/granule secretion induced by U46619” value is on record as “diminished” and the “integrin-independent first wave of ATP/granule secretion induced by U46619” value is recorded as “significantly enhanced”. Also, the “platelet granule secretion, low dose thrombin, integrin antagonist-treated platelets” value in data set [7] (wild type mouse or human platelets) is on record as “enhanced”.
With `CSCCNc1nc(SCCC(F)(F)F)nc2c1ncn2[C@@H]1O[C@H](COP(=O)(O)OP(=O)(O)C(Cl)(Cl)P(=O)(O)O)[C@@H](O)[C@H]1O` [cangrelor], in [5], the “tail bleeding, drugs injected after initiation of thrombosis” value was “caused significant bleeding” and the “tail bleeding time vs normal control” value is reported as “dramatically increased”. The “anti-thrombotic effect compared with M3mP6 (10 μmol/kg), drugs injected after initiation of thrombosis” value in [10] (3.75% FeCl3, cangrelor 30 μg/kg) was “no statistical difference”. In addition, the “anti-thrombotic effect compared with M3mP6 HLPN (10 μmol/kg), pre-injury dosing” value in [10] is “moderately but significantly better”. In data set [11], the “intravascular fibrin clot formation at the site of vascular injury” value is listed as “moderate effect”. For the same compound, in data set [11] (preinjected), the platelet thrombus formation entry is reported as “completely inhibiting”. Besides, in [12], the “bleeding from perforated artery vs control mice” value was “caused excessive bleeding”.
